These are literature values, as cited in patent publication US20040147461A1, “Motilide compounds” (priority 2000, published 2004).

The conditions of data set [1]: statement in words.
A further data set concerns the target motilin receptor (Homo sapiens, UniProt O43193). As to conditions: statement in words.

Sequence of motilin receptor (O43193 whole entry, species assumed): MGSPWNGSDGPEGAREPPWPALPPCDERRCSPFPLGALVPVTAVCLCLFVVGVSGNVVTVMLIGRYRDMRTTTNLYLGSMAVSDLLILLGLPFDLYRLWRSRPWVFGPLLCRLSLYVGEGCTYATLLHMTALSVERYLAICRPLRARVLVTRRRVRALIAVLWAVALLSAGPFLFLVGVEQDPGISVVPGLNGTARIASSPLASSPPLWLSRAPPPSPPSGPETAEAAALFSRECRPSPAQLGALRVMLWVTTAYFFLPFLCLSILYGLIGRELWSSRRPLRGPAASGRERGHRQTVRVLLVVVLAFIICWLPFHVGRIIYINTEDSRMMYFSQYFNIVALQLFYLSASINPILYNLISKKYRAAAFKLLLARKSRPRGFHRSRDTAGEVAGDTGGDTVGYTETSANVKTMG

On to `CC[C@H]1OC(=O)[C@H](C)[C@@H](O[C@H]2C[C@@](C)(OC)[C@@H](O)[C@H](C)O2)[C@H](C)[C@@H](O[C@@H]2O[C@H](C)C[C@H](N(C)C)[C@H]2O)[C@@]2(C)CC(C)=C(O2)[C@H](C)[C@@H](O)[C@]1(C)O` [enol ether, 8,9-anhydroerythromycin A 6,9-hemiacetal], for which the antimicrobial activity entry in data set [1] is on record as “does not also posses antimicrobial activity”.
`CC[C@H]1OC(=O)[C@H](C)[C@@H](O[C@H]2C[C@@](C)(OC)[C@@H](O)[C@H](C)O2)[C@H](C)[C@@H](O[C@@H]2O[C@H](C)C[C@H](N(C)C)[C@H]2O)[C@](C)(O)C[C@@H](C)C(=O)[C@H](C)[C@@H](O)[C@]1(C)O` [erythromycin A]: the motilin agonist activity entry at motilin receptor was “motilin agonists”.
